This passage reports IC50 results from patent US9951077B2, “Aminopyridazinone compounds as protein kinase inhibitors” (ETERNITY BIOSCIENCE INC., priority 2014, dated 2018).

In the assay the target is Btk (Homo sapiens (Human), UniProt Q06187). Briefly: Btk kinase assay (ADP-Glo). The format is biochemical. The conditions noted are these: ATP 1.2 μM, 60 minutes, room temperature; read-out: BTK enzyme IC50. On the procedure:
The Btk kinase assay was performed using a ADP-Glo Btk kinase assay kit purchased from Promega (Madison, Wis.). The assay was conducted according to the protocols provided in the assay kit. In brief, the enzyme reaction was carried out in the kinase reaction buffer containing Btk (2 ng/μl), ATP (1.2 μM), poly GT peptide (0.3 μM), DTT (40 nM), MnCl2 (1.4 mM), and 1×kinase buffer (included in the kit) in the presence or absence of the tested articles at various concentrations in 384-well plate at room temperature (22±1° C.) for 60 minutes. The final reaction volume for each reaction was 10 μl. Then, 4 μl of ADP-Glo reagent (included in the kit) was added into the reaction and the plate was further incubated for another 40 minutes to terminate the reaction and deplete the remaining ATP. Finally, 10 μl of the kinase detection reagent was added into each reaction to simultaneously convert ADP to ATP and allow the newly synthesized ATP to be measured by a plate-reading luminometer (Victor X5 2030 multilabel reader, PerkinElmer). IC50 value was calculated using appropriate programs in GraphPad Prism by plotting the logarithm of the concentration versus percent inhibition as compared with a vehicle (DMSO) control.

Btk, sequence (Q06187 whole entry): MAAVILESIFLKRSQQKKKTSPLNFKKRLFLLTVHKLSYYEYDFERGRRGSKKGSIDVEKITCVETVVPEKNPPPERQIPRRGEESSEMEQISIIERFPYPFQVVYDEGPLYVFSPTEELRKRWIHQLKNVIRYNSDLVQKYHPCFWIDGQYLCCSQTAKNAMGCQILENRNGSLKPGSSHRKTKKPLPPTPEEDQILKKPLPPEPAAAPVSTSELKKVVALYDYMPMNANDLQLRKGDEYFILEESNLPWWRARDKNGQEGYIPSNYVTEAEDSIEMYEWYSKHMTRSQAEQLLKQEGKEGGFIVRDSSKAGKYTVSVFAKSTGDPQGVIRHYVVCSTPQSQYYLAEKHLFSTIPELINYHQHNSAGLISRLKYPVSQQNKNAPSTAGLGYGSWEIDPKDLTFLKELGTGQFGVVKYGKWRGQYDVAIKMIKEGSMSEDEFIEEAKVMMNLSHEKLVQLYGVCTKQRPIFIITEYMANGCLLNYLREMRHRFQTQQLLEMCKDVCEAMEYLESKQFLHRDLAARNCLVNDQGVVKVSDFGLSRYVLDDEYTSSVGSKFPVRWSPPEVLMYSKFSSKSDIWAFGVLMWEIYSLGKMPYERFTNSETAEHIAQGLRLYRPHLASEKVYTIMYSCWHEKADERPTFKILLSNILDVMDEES

Take `CN(C)C/C=C/C(=O)N1CCCC(n2cc(-c3ccc(Oc4ccc(Cl)cc4)cc3)c3c(N)n[nH]c(=O)c32)C1` (stereo not drawn) [Example 65, 4-amino-3-[4-(4-chlorophenoxy)phenyl]-1-[1-[(E)-4-(dimethylamino)but-2-enoyl]-3-piperidyl]-6H-pyrrolo[2,3-d]pyridazin-7-one]: the IC50 lay in the range of 0.01 to 1 µM.
In the case of `C=CC(=O)N1CCCC(n2cc(-c3ccc(Oc4cccc(Cl)c4)cc3)c3c(N)n[nH]c(=O)c32)C1` (stereo not drawn) [Example 66, 1-(1-acryloylpiperidin-3-yl)-4-amino-3-(4-(3-chlorophenoxy)phenyl)-1H-pyrrolo[2,3-d]pyridazin-7(6H)-one] it was 0.01 to 1 µM; in that of `CN(C)C/C=C/C(=O)N1CCCC(n2cc(-c3ccc(Oc4cccc(Cl)c4)cc3)c3c(N)n[nH]c(=O)c32)C1` (stereo not drawn) [Example 67, 4-amino-3-[4-(3-chlorophenoxy)phenyl]-1-[1-[(E)-4-(dimethylamino)but-2-enoyl]-3-piperidyl]-6H-pyrrolo[2,3-d]pyridazin-7-one], not above 0.01 µM; in that of `C=CC(=O)N1CCCC(n2cc(-c3ccc(Oc4cccc(Cl)c4)c(OC)c3)c3c(N)n[nH]c(=O)c32)C1` (stereo not drawn) [Example 68, 1-(1-acryloylpiperidin-3-yl)-4-amino-3-(4-(3-chlorophenoxy)-3-methoxyphenyl)-1H-pyrrolo[2,3-d]pyridazin-7(6H)-one], 0.01 to 1 µM.
In the case of `COc1cc(-c2cn(C3CCCN(C(=O)/C=C/CN(C)C)C3)c3c(=O)[nH]nc(N)c23)ccc1Oc1cccc(Cl)c1` (stereo not drawn) [Example 69, 4-amino-3-[4-(3-chlorophenoxy)-3-methoxy-phenyl]-1-[1-[(E)-4-(dimethylamino)but-2-enoyl]-3-piperidyl]-6H-pyrrolo[2,3-d]pyridazin-7-one] it was not above 0.01 µM; in that of `C=CC(=O)N1CCC[C@@H](n2cc(-c3ccc(Oc4ccccc4Cl)cc3)c3c(N)n[nH]c(=O)c32)C1` [Example 70, (R)-1-(1-acryloylpiperidin-3-yl)-4-amino-3-(4-(2-chlorophenoxy)phenyl)-1H-pyrrolo[2,3-d]pyridazin-7(6H)-one], 0.01 to 1 µM; in that of `CN(C)C/C=C/C(=O)N1CCC[C@@H](n2cc(-c3ccc(Oc4ccccc4Cl)cc3)c3c(N)n[nH]c(=O)c32)C1` [Example 71, 4-amino-3-[4-(2-chlorophenoxy)phenyl]-1-[(3R)-1-[(E)-4-(dimethylamino)but-2-enoyl]-3-piperidyl]-6H-pyrrolo[2,3-d]pyridazin-7-one], not above 0.01 µM.
For the compound `C=CC(=O)N1CCC[C@@H](n2cc(-c3ccc(Oc4ccc(Cl)c(Cl)c4)c(OC)c3)c3c(N)n[nH]c(=O)c32)C1` [Example 72, (R)-1-(1-acryloylpiperidin-3-yl)-4-amino-3-(4-(3,4-dichlorophenoxy)-3-methoxyphenyl)-1H-pyrrolo[2,3-d]pyridazin-7(6H)-one], the IC50 lay in the range of 0.01 to 1 µM.
Regarding `COc1cc(-c2cn([C@@H]3CCCN(C(=O)/C=C/CN(C)C)C3)c3c(=O)[nH]nc(N)c23)ccc1Oc1ccc(Cl)c(Cl)c1` [Example 73, 4-amino-3-[4-(3,4-dichlorophenoxy)-3-methoxy-phenyl]-1-[(3R)-1-[(E)-4-(dimethylamino)but-2-enoyl]-3-piperidyl]-6H-pyrrolo[2,3-d]pyridazin-7-one], the IC50 was 0.01 to 1 µM.
In the case of `C=CC(=O)N1CCC[C@@H](n2cc(-c3ccc(Oc4ccccc4)c(F)c3)c3c(N)n[nH]c(=O)c32)C1` [Example 74, (R)-1-(1-acryloylpiperidin-3-yl)-4-amino-3-(3-fluoro-4-phenoxyphenyl)-1H-pyrrolo[2,3-d]pyridazin-7(6H)-one], the IC50 lay within 0.01 to 1 µM.
Regarding `CN(C)C/C=C/C(=O)N1CCC[C@@H](n2cc(-c3ccc(Oc4ccccc4)c(F)c3)c3c(N)n[nH]c(=O)c32)C1` [Example 75, 4-amino-1-[(3R)-1-[(E)-4-(dimethylamino)but-2-enoyl]-3-piperidyl]-3-(3-fluoro-4-phenoxy-phenyl)-6H-pyrrolo[2,3-d]pyridazin-7-one], the 50% inhibitory concentration (IC50) is not above 0.01 µM.
On to `C=CC(=O)N1CCC[C@@H](n2cc(-c3ccc(Oc4ccccc4)cc3F)c3c(N)n[nH]c(=O)c32)C1` [Example 76, (R)-1-(1-acryloylpiperidin-3-yl)-4-amino-3-(2-fluoro-4-phenoxyphenyl)-1H-pyrrolo[2,3-d]pyridazin-7(6H)-one], for which the IC50 is 0.01 to 1 µM.
With `CN(C)C/C=C/C(=O)N1CCC[C@@H](n2cc(-c3ccc(Oc4ccccc4)cc3F)c3c(N)n[nH]c(=O)c32)C1` [Example 77, 4-amino-1-[(3R)-1-[(E)-4-(dimethylamino)but-2-enoyl]-3-piperidyl]-3-(2-fluoro-4-phenoxy-phenyl)-6H-pyrrolo[2,3-d]pyridazin-7-one], the half-maximal inhibitory concentration (IC50) was not above 0.01 µM.
As to `C=CC(=O)N1CCC[C@@H](n2cc(-c3ccc(Oc4c(F)cccc4Cl)cc3)c3c(N)n[nH]c(=O)c32)C1` [Example 78, (R)-1-(1-acryloylpiperidin-3-yl)-4-amino-3-(4-(2-chloro-6-fluorophenoxy)phenyl)-1H-pyrrolo[2,3-d]pyridazin-7(6H)-one], the IC50 was not above 0.01 µM.
For the compound `CN(C)C/C=C/C(=O)N1CCC[C@@H](n2cc(-c3ccc(Oc4c(F)cccc4Cl)cc3)c3c(N)n[nH]c(=O)c32)C1` [Example 79, 4-amino-3-[4-(2-chloro-6-fluoro-phenoxy)phenyl]-1-[(3R)-1-[(E)-4-(dimethylamino)but-2-enoyl]-3-piperidyl]-6H-pyrrolo[2,3-d]pyridazin-7-one], the IC50 was not above 0.01 µM.
On to `C=CC(=O)N1CCC[C@@H](n2c(Cl)c(-c3ccc(Oc4ccccc4)cc3)c3c(N)n[nH]c(=O)c32)C1` [Example 80, (R)-1-(1-acryloylpiperidin-3-yl)-4-amino-2-chloro-3-(4-phenoxyphenyl)-1H-pyrrolo[2,3-d]pyridazin-7(6H)-one], for which the IC50 fell in the range of 0.01 to 1 µM.
In the case of `C=CC(=O)N1CCC[C@@H](n2c(F)c(-c3ccc(Oc4ccccc4)cc3)c3c(N)n[nH]c(=O)c32)C1` [Example 81, (R)-1-(1-acryloylpiperidin-3-yl)-4-amino-2-fluoro-3-(4-phenoxyphenyl)-1H-pyrrolo[2,3-d]pyridazin-7(6H)-one] it was 0.01 to 1 µM; in that of `CN(C)C/C=C/C(=O)N1CCC[C@@H](n2c(F)c(-c3ccc(Oc4ccccc4)cc3)c3c(N)n[nH]c(=O)c32)C1` [Example 82, 4-amino-1-[(3R)-1-[(E)-4-(dimethylamino)but-2-enoyl]-3-piperidyl]-2-fluoro-3-(4-phenoxyphenyl)-6H-pyrrolo[2,3-d]pyridazin-7-one], not above 0.01 µM; in that of `C=CC(=O)N1CCC[C@@H](n2c(Cl)c(-c3ccc(Oc4ccccc4F)cc3)c3c(N)n[nH]c(=O)c32)C1` [Example 83, (R)-1-(1-acryloylpiperidin-3-yl)-4-amino-2-chloro-3-(4-(2-fluorophenoxy)phenyl)-1H-pyrrolo[2,3-d]pyridazin-7(6H)-one], 1 to 100 µM.
Take `N#CN1CCC[C@@H](n2cc(-c3ccc(Oc4c(F)cccc4F)cc3)c3c(N)n[nH]c(=O)c32)C1` [Example 84, (R)-3-(4-amino-3-(4-(2,6-difluorophenoxy)phenyl)-7-oxo-6,7-dihydro-1H-pyrrolo[2,3-d]pyridazin-1-yl)piperidine-1-carbonitrile]: the half-inhibitory concentration (IC50) was in the range of 0.01 to 1 µM.
`N#CN1CCC[C@@H](n2cc(-c3ccc(Oc4ccccc4)c(F)c3)c3c(N)n[nH]c(=O)c32)C1` [Example 85, (R)-3-(4-amino-3-(3-fluoro-4-phenoxyphenyl)-7-oxo-6,7-dihydro-1H-pyrrolo[2,3-d]pyridazin-1-yl)piperidine-1-carbonitrile]: the 50% inhibitory concentration (IC50) is 0.01 to 1 µM.
Turning to `N#CN1CCC[C@@H](n2c(Cl)c(-c3ccc(Oc4ccccc4F)cc3)c3c(N)n[nH]c(=O)c32)C1` [Example 86, (R)-3-(4-amino-2-chloro-3-(4-(2-fluorophenoxy)phenyl)-7-oxo-6,7-dihydro-1H-pyrrolo[2,3-d]pyridazin-1-yl)piperidine-1-carbonitrile], the IC50 was in the range of 1 to 100 µM.
For `N#CN1CCC[C@@H](n2cc(-c3ccc(Oc4ccccc4F)cc3)c3c(N)n[nH]c(=O)c32)C1` [Example 87, (R)-3-(4-amino-3-(4-(2-fluorophenoxy)phenyl)-7-oxo-6,7-dihydro-1H-pyrrolo[2,3-d]pyridazin-1-yl)piperidine-1-carbonitrile], the IC50 is not above 0.01 µM.
Consider `C=CC(=O)Nc1cccc(-n2cc(-c3ccc(Oc4ccccc4)cc3)c3c(N)n[nH]c(=O)c32)c1` [Example 88, N-(3-(4-amino-7-oxo-3-(4-phenoxyphenyl)-6,7-dihydro-1H-pyrrolo[2,3-d]pyridazin-1-yl)phenyl)acrylamide], for which the IC50 is not above 0.01 µM.
Consider `C=CC(=O)Nc1cccc(-n2cc(-c3ccc(OC)c(Cl)c3)c3c(N)n[nH]c(=O)c32)c1` [Example 89, N-(3-(4-amino-3-(3-chloro-4-methoxyphenyl)-7-oxo-6,7-dihydro-1H-pyrrolo[2,3-d]pyridazin-1-yl)phenyl)acrylamide], for which the 50% inhibitory concentration (IC50) was 0.01 to 1 µM.
In the case of `C=CC(=O)Nc1ccc(-n2cc(-c3ccc(Oc4ccccc4)cc3)c3c(N)n[nH]c(=O)c32)cc1` [Example 90, N-(4-(4-amino-7-oxo-3-(4-phenoxyphenyl)-6,7-dihydro-1H-pyrrolo[2,3-d]pyridazin-1-yl)phenyl)acrylamide] it was 0.01 to 1 µM.
In the case of `C=CC(=O)Nc1cccc(-n2cc(-c3ccc(Oc4ccccc4F)cc3)c3c(N)n[nH]c(=O)c32)c1` [Example 91, N-(3-(4-amino-3-(4-(2-fluorophenoxy)phenyl)-7-oxo-6,7-dihydro-1H-pyrrolo[2,3-d]pyridazin-1-yl)phenyl)acrylamide] it was 0.01 to 1 µM.
